The target in data set [1] is T1, HCT116 isogenic IDH1-R132C mutant cells (Homo sapiens, UniProt O75874, R132C).
T1 construct: HCT116 isogenic IDH1-R132H and IDH1-R132C mutant cells; endogenous in cells; host or cells: HCT116 isogenic IDH1-R132C mutant cells (kept under G418)
Nature of the data set: Cellular 2-HG assay using HCT116 mutant IDH1 cells (R132C). The format is cell-based. To be noted: cellular 2-HG inhibition, 24 hours, RapidFire mass spectrometry. On the procedure:
(§1) Cellular 2-HG Assay Using HCT116 Mutant IDH1 Cells
(§2) HCT116 isogenic IDH1-R132H and IDH1-R132C mutant cells were cultured in growth media (McCoy's 5A, 10% fetal bovine serum, 1× antibiotic-antimycotic solution and 0.3 mg/mL G418) in 5% CO2 in an incubator at 37° C. To prepare the assay, cells were trypsinized and resuspended in assay media (McCoy's 5A with no L-glutamine, 10% fetal bovine serum, 1× antibiotic-antimycotic solution and 0.3 mg/mL G418). An aliquot of 10,000 cells/100 μL was transferred to each well of a clear 96-well tissue culture plate. The cells were incubated in 5% CO2 at 37° C. in an incubator overnight to allow for proper cell attachment. An aliquot of 50 μL of compound containing assay media were then added to each well and the assay plate was kept in 5% CO2 at 37° C. in an incubator for 24 hours. The media was then removed from each well and 150 μL of a methanol/water mixture (80/20 v/v) was added to each well. The plates were kept at −80° C. freezer overnight to allow for complete cell lysis. An aliquot of 125 μL of extracted supernatant was analyzed by RapidFire high-throughout-mass spectrometry (Agilent) to determine the cellular 2-HG level. The IC50 of a given compound was calculated by fitting the dose response curve of cellular 2-HG inhibition at a given concentration with the four parameter logistic equation

The target of data set [2] is T2, HCT116 isogenic IDH1-R132H mutant cells (Homo sapiens, UniProt O75874, R132H).
T2 construct: HCT116 isogenic IDH1-R132H and IDH1-R132C mutant cells; endogenous in cells; host or cells: HCT116 isogenic IDH1-R132H mutant cells (kept under G418)
T2 sequence (O75874 2-414 R132H limits assumed): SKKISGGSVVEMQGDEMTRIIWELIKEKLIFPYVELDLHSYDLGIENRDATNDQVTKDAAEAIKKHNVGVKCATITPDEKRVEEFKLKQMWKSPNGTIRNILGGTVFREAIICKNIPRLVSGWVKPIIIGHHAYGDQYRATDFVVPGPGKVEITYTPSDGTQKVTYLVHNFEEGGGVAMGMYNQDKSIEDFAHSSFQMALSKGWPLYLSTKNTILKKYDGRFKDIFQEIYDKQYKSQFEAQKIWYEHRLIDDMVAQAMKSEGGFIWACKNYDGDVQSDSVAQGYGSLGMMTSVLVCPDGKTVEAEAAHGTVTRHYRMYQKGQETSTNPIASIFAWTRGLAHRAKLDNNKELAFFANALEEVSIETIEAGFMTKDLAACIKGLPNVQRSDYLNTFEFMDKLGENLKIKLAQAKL
Nature of the data set: Cellular 2-HG assay using HCT116 mutant IDH1 cells (R132H). The format is cell-based. To be noted: cellular 2-HG inhibition, 24 hours, RapidFire mass spectrometry. On the procedure:
as §1, §2

Data set [3] addresses IDH1-R132H recombinant protein (Homo sapiens, UniProt O75874, R132H). Nature of the data set: IDH1-R132H enzymatic assay (NADPH consumption, diaphorase/resazurin readout). The format is biochemical. To be noted: 30 nM IDH1-R132H, inhibition of NADPH consumption; read-out: Enzyme IDH1 R132H IC50. The procedure: (§3) IDH1-R132H and IDH1-R132C Enzymatic Assay
(§4) Assays were performed in a 384-well black plate. An aliquot of 250 nL of compound was incubated with 10 μL of 30 nM IDH1-R132H or 10 nM IDH1-R132C recombinant protein in assay buffer (50 mM Tris pH=7.5, 150 mM NaCl, 5 mM MgCl2, 0.1% (w/v) Bovine Serum Albumin, and 0.01% Triton X-100) in each well at 25° C. for 15 minutes. After the plate was centrifuged briefly, an aliquot of 10 μL of 2 mM α-ketoglutarate and 20 μM NADPH solution prepared in assay buffer was then added to each well and the reaction was maintained at 25° C. for 45 minutes. An aliquot of 10 μL of diaphorase solution (0.15 U/mL diaphorase and 30 μM Resazurin in assay buffer) was added to each well. The plate was maintained at 25° C. for 15 minutes and then read on a plate reader with excitation and emission wavelengths at 535 nm and 590 nm, respectively. The IC50 of a given compound was calculated by fitting the dose response curve of inhibition of NADPH consumption at a given concentration with the four parameter logistic equation.

The target of data set [4] is IDH1-R132C recombinant protein (Homo sapiens, UniProt O75874, R132C). Put plainly: IDH1-R132C enzymatic assay (NADPH consumption, diaphorase/resazurin readout). The format is biochemical. To be noted: 10 nM IDH1-R132C, inhibition of NADPH consumption; read-out: Enzyme IDH1 R132C IC50. On the procedure:
as §3, §4
In general terms: The colour change of resazurin is a common sign of viable cells or microbes.

Structures are written as SMILES.

Sequence of IDH1-R132C recombinant protein (O75874 whole entry R132C): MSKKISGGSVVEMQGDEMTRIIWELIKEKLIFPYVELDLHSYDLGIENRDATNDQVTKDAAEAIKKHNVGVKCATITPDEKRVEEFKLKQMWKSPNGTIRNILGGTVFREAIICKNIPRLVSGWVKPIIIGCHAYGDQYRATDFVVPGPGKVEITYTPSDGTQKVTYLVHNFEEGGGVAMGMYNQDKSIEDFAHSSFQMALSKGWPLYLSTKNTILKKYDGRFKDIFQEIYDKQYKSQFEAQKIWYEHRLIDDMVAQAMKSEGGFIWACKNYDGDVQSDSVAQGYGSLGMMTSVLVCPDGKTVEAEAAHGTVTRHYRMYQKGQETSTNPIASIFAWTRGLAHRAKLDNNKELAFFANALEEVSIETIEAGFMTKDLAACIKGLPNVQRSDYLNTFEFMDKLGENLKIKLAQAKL
T1 sequence (O75874 2-414 R132C limits assumed): as the sequence (O75874 2-414 R132H limits assumed) above, with H131C counted along it
Sequence of IDH1-R132H recombinant protein (O75874 whole entry R132H): as the sequence (O75874 whole entry R132C) above, with C132H counted along it

As to `CC(Nc1ncc(C#N)s1)c1cc2cc(Cl)c(OCc3ccccn3)cc2[nH]c1=O` (racemic) [Compound I-3, 2-((1-(6-chloro-2-oxo-7-(pyridin-2-ylmethoxy)-1,2-dihydroquinolin-3-yl)ethyl)amino)thiazole-5-carbonitrile], the IC50 in data set [1] is less than 0.1 µM; in data set [2] it was 0.1 to 1 µM; in data set [3], less than 0.1 µM; in data set [4] it was 0.1 to 1 µM.
With `C[C@H](Nc1ncc(C#N)s1)c1cc2cc(Cl)ccc2[nH]c1=O` [Compound I-1, (S)-2-((1-(6-chloro-2-oxo-1,2-dihydroquinolin-3-yl)ethyl)amino)thiazole-5-carbonitrile], the melting point was 211 to 213 °C (dec.). The compound further gave an IC50 in data set [1] of 0.1 to 1 µM. The compound also displayed a concentration for half-maximal inhibition (IC50) in data set [2] of 0.1 to 1 µM. In addition, the IC50 in data set [3] was less than 0.1 µM. Moreover, the IC50 in data set [4] was 0.1 to 1 µM.
On to `COc1cc2[nH]c(=O)c(C(C)Nc3ncc(C#N)s3)cc2cc1Cl` (stereo not drawn) [Compound I-2, 2-((1-(6-chloro-7-methoxy-2-oxo-1,2-dihydroquinolin-3-yl)ethyl)amino)thiazole-5-carbonitrile], for which the IC50 was 0.1 to 1 µM in data set [1], less than 0.1 µM in data set [2], less than 0.1 µM in data set [3] and 0.1 to 1 µM in data set [4].
Turning to `C[C@H](Nc1ncc(C#N)s1)c1cc2cc(Cl)c(OCc3ccccn3)cc2[nH]c1=O` [Compound I-4, (S)-2-((1-(6-chloro-2-oxo-7-(pyridin-2-ylmethoxy)-1,2-dihydroquinolin-3-yl)ethyl)amino)thiazole-5-carbonitrile], the IC50 in data set [1], in data set [2], in data set [3] and in data set [4] was less than 0.1 µM each time.
In the case of `C[C@@H](Nc1ncc(C#N)s1)c1cc2cc(Cl)c(OCc3ccccn3)cc2[nH]c1=O` [Compound I-5, (R)-2-((1-(6-chloro-2-oxo-7-(pyridin-2-ylmethoxy)-1,2-dihydroquinolin-3-yl)ethyl)amino)thiazole-5-carbonitrile], the values for the concentration for half-maximal inhibition (IC50) in data set [3] and in data set [4] were 0.1 to 1 µM and 1 to 10 µM, respectively.
Consider `CC(Nc1ncc(C#N)s1)c1cc2cc(Cl)cnc2[nH]c1=O` (stereo not drawn) [Compound I-6, 2-((1-(6-chloro-2-oxo-1,2-dihydro-1,8-naphthyridin-3-yl)ethyl)amino)thiazole-5-carbonitrile], for which, in data set [3], the 50% inhibitory concentration (IC50) was 0.1 to 1 µM.
Consider `Cc1nc(N[C@@H](C)c2cc3cc(Cl)ccc3[nH]c2=O)sc1C#N` [Compound I-7, (S)-2-((1-(6-chloro-2-oxo-1,2-dihydroquinolin-3-yl)ethyl)amino)-4-methylthiazole-5-carbonitrile], for which the IC50 in data set [1] is 0.1 to 1 µM; in data set [2], less than 0.1 µM; in data set [3], less than 0.1 µM; in data set [4], 0.1 to 1 µM.
In the case of `CC(=O)Nc1cnc(N[C@@H](C)c2cc3cc(Cl)ccc3[nH]c2=O)s1` [Compound I-8, (S)-N-(2-((1-(6-chloro-2-oxo-1,2-dihydroquinolin-3-yl)ethyl)amino)thiazol-5-yl)acetamide], the results for the IC50 in data set [3] and in data set [4] were 1 to 10 µM and more than 10 µM, respectively.
In the case of `CCOC(=O)c1sc(N[C@@H](C)c2cc3cc(Cl)ccc3[nH]c2=O)nc1C` [Compound I-9, (S)-ethyl 2-((1-(6-chloro-2-oxo-1,2-dihydroquinolin-3-yl)ethyl)amino)-4-methylthiazole-5-carboxylate], in data set [3], the 50% inhibitory concentration (IC50) was in the range of 1 to 10 µM.
With `C[C@H](Nc1ncc(C(N)=O)s1)c1cc2cc(Cl)ccc2[nH]c1=O` [Compound I-10, (S)-2-((1-(6-Chloro-2-oxo-1,2-dihydroquinolin-3-yl)ethyl)amino)thiazole-5-carboxamide], the results for the IC50 in data set [3] and in data set [4] were 0.1 to 1 µM and 1 to 10 µM, respectively.
On to `Cc1nc(N[C@@H](C)c2cc3cc(Cl)ccc3[nH]c2=O)sc1C(N)=O` [Compound I-11, (S)-2-((1-(6-chloro-2-oxo-1,2-dihydroquinolin-3-yl)ethyl)amino)-4-methylthiazole-5-carboxamide], for which the IC50 was 0.1 to 1 µM in data set [1], less than 0.1 µM in data set [2], less than 0.1 µM in data set [3] and 0.1 to 1 µM in data set [4].
Turning to `C[C@H](Nc1nsc(N2CCOC2=O)n1)c1cc2cc(Cl)ccc2[nH]c1=O` [Compound I-12, 6-chloro-3-[(1S)-1-{[5-(2-oxo-1,3-oxazolidin-3-yl)-1,2,4-thiadiazol-3-yl]amino}ethyl]-1,2-dihydroquinolin-2-one], the IC50 in data set [3] is more than 10 µM.
As for `O=c1[nH]c2ccc(Cl)cc2cc1CNc1nc(-c2ccccn2)cs1` [Compound I-13, 6-chloro-3-({[4-(pyridin-2-yl)-1,3-thiazol-2-yl]amino}methyl)-1,2-dihydroquinolin-2-one], the IC50 in data set [3] lay within 1 to 10 µM.
`O=c1[nH]c2ccc(Cl)cc2cc1CNc1nc(-c2ccc(F)c(F)c2)cs1` [Compound I-14, 6-chloro-3-({[4-(3,4-difluorophenyl)-1,3-thiazol-2-yl]amino}methyl)-1,2-dihydroquinolin-2-one]: the IC50 in data set [3] was in the range of 1 to 10 µM.
The same measure, in the same setting: for `COc1ccc2[nH]c(=O)c(CNc3nc4ccccc4s3)cc2c1` [Compound I-15, 3-{[(1,3-benzothiazol-2-yl)amino]methyl}-6-methoxy-1,2-dihydroquinolin-2-one] the value was more than 10 µM; for `CCc1c(C)sc(NCc2cc3cc(Cl)ccc3[nH]c2=O)c1C#N` [Compound I-16, 2-{[(6-chloro-2-oxo-1,2-dihydroquinolin-3-yl)methyl]amino}-4-ethyl-5-methylthiophene-3-carbonitrile], more than 10 µM.
`COc1ccc2[nH]c(=O)c(CNc3nc(C)c(C)s3)cc2c1` [Compound I-17, 3-{[(dimethyl-1,3-thiazol-2-yl)amino]methyl}-6-methoxy-1,2-dihydroquinolin-2-one]: the IC50 in data set [3] was more than 10 µM.

For orientation: IC50 means the concentration at which inhibition is half-maximal. Broadly, the melting point is the temperature, or range, at which the solid turns liquid.
